# Like-named read-outs stand apart in the source and are kept apart here.
# Columns and labels:
# influenza A/HK/68 [1] = system: influenza A/HK/68; design: species or system ICR mice; details: mouse, in vivo
# E.G7 (OVA) cells = details: s.c. 25 μg OVA in AGP preparation, spleen cells 21 days later
# [2] = system: hepatitis B surface antigen (HBsAg); test: Serum anti-HBsAg antibody titers after intranasal HBsAg + AGP-AF (ELISA); type: in vivo, BALB/c mice; details: for Anti HBsAg Titer^−1 IgG1 / Anti HBsAg Titer^−1 IgG2a: K = 10^3
# influenza A/HK/68 [3] = type: in vivo, ICR mice; details: mouse, in vivo
# [4] = system: hepatitis B surface antigen (HBsAg); test: Vaginal wash anti-HBsAg antibody after intranasal HBsAg + AGP-AF; type: in vivo, BALB/c mice; details: 10 days after the booster immunization; intranasal HBsAg + 10 μg AGP-AF
# Text: Vaginal samples were collected 10 days after the booster immunization and assayed for anti-HBsAg antibody.
# [5] = system: hepatitis B surface antigen (HBsAg); details: for % Cytotoxicity (d16, post 2°): HBsAg + 10 μg AGP-AF intranasally; for % Cytotoxicity (d8, post 3°): intranasal HBsAg + 10 μg AGP-AF
# [6] = Fever response in rabbits (pyrogenicity); type: in vivo; details: 10 ug/kg; cumulative rise ≥1.5 degree in three rabbits is considered pyrogenic
# Protocol: The AGP compounds were also evaluated for their tendency to induce a fever response in rabbits. Each compound was formulated in 10% (v/v) ethanol/water solution at 100 mg/ml, then diluted with D5W to the desired concentration. The material was injected at 3 ml/kg body weight into 3 rabbits. The rise in core temperature of the rabbits was recorded.
# tetanus toxoid [7] = details: mouse, in vivo, sc
# influenza A/HK/68 [8] = details: mouse, in vivo
# ovalbumin = test: Stimulation of antiovalbumin antibody production; type: in vivo, BDF1 female mice; details: 50 μg AGP + 50 μg ovalbumin; second immunization day 21; bled 14 days after second injection
# Protocol: BDF1 female mice (8 per group) were immunized with 0.2 ml of emulsions containing 50 μg of the AGPs +50 μg of ovalbumin. A second immunization was administered 21 days post primary. Each mouse was bled 14 days after the second injection.
# tetanus toxoid [9] = system: tetanus toxoid; design: species or system BFD1 (C57B1/6X DBA/2) female mice; details: mouse, in vivo
# [10] = day 22 post 2°, HBsAg + 10 μg AGP-AF intranasally
# [11] = serum, day 21 post 3°, intranasal HBsAg + 10 μg AGP-AF
compound,measurement,setting,value
3-Hydroxy-(S)-2-[(R)-3-decanoyloxytetradecanoylamino]propyl 2-Deoxy-4-O-phosphono-2-[(R)-3-decanoyloxytetradecanoylamino]-3-O-[(R)-3-decanoyloxytetradecanoyl]-β-D-glucopyranoside Triethylammonium Salt [B5],IgG Titer-1 post 1°,influenza A/HK/68 [1],1600
same,IgG Titer-1 post 2°,influenza A/HK/68 [1],">102,400"
same,Percent Survival post 1°,influenza A/HK/68 [1],60%
same,Percent Survival post 2°,influenza A/HK/68 [1],90%
same,% Cytotoxicity,E.G7 (OVA) cells; E:T 12.5:1,11%
same,% Cytotoxicity,E.G7 (OVA) cells; E:T 25:1,18%
same,% Cytotoxicity,E.G7 (OVA) cells; E:T 50:1,28%
same,Anti HBsAg Titer^−1 IgA,[2]; [10],"3,200"
same,Anti HBsAg Titer^−1 IgG1,[2]; [10],256K
same,Anti HBsAg Titer^−1 IgG2a,[2]; [10],500K
same,Anti HBsAg Titer^−1 IgG1,[2]; [11],500K
same,Anti HBsAg Titer^−1 IgG2a,[2]; [11],1000K
same,Anti HBsAg Titer^−1 IgA,[2]; [11],"12,800"
same,Percent Survival,influenza A/HK/68 [3],44%
same,Titer−1 IgG1,influenza A/HK/68 [3],200
same,Titer−1 IgG2a,influenza A/HK/68 [3],50
same,Titer−1 IgG2b,influenza A/HK/68 [3],400
same,Titer−1 Total IgG,influenza A/HK/68 [3],800
same,Vaginal Wash Anti-HBsAg Titer^−1 IgA,[4],1600
same,Vaginal Wash Anti-HBsAg Titer^−1 IgG,[4],1600
same,"% Cytotoxicity (d16, post 2°)",[5]; E/T 6.25:1,11%
same,"% Cytotoxicity (d8, post 3°)",[5]; E/T 6.25:1,12%
same,"% Cytotoxicity (d16, post 2°)",[5]; E/T 12.5:1,20%
same,"% Cytotoxicity (d8, post 3°)",[5]; E/T 12.5:1,19%
same,"% Cytotoxicity (d16, post 2°)",[5]; E/T 25:1,30%
same,"% Cytotoxicity (d8, post 3°)",[5]; E/T 25:1,30%
same,"% Cytotoxicity (d16, post 2°)",[5]; E/T 50:1,43%
same,"% Cytotoxicity (d8, post 3°)",[5]; E/T 50:1,44%
same,"PYROGENICITY Total Rise ° C., 3 rabbits",[6],4.1 °C
3-[(R)-3-Tetradecanoyloxytetradecanoylamino]propyl 2-Deoxy-4-O-phosphono-3-O-[(R)-3-tetradecanoyoxytetradecanoyl]-2-[(R)-3-tetradecanoyloxytetradecanoylamino])-β-D-glucopyranoside Triethylammonium Salt [B21],Anti-tetanus toxoid IgG1 T/C,tetanus toxoid [7],2.23
same,Anti-tetanus toxoid IgG1 Titer,tetanus toxoid [7],"480,000"
same,Anti-tetanus toxoid IgG2a T/C,tetanus toxoid [7],5.83
same,Anti-tetanus toxoid IgG2a Titer,tetanus toxoid [7],"29,600"
same,Anti-tetanus toxoid IgG2b T/C,tetanus toxoid [7],6.07
same,Anti-tetanus toxoid IgG2b Titer,tetanus toxoid [7],"174,400"
same,Anti-tetanus toxoid IgM T/C,tetanus toxoid [7],5.50
same,Anti-tetanus toxoid IgM Titer,tetanus toxoid [7],"8,800"
same,Anti-tetanus toxoid Total IgG T/C,tetanus toxoid [7],4.71
same,Anti-tetanus toxoid Total IgG Titer,tetanus toxoid [7],"30,400"
same,Percent Survival,influenza A/HK/68 [8],40%
same,Titer−1 IgG1,influenza A/HK/68 [8],800
same,Titer−1 IgG2a,influenza A/HK/68 [8],100
same,Titer−1 IgG2b,influenza A/HK/68 [8],1600
same,Titer−1 Total IgG,influenza A/HK/68 [8],6400
same,Anti-ovalbumin IgG1 T/C,ovalbumin,0.6
same,Anti-ovalbumin IgG1 Titer,ovalbumin,1000
same,Anti-ovalbumin IgG2a T/C,ovalbumin,0.1
same,Anti-ovalbumin IgG2a Titer,ovalbumin,25
same,Anti-ovalbumin IgG2b T/C,ovalbumin,0.8
same,Anti-ovalbumin IgG2b Titer,ovalbumin,200
same,Anti-ovalbumin IgM T/C,ovalbumin,1.3
same,Anti-ovalbumin IgM Titer,ovalbumin,250
same,Anti-ovalbumin Total Ig T/C,ovalbumin,0.5
same,Anti-ovalbumin Total Ig Titer,ovalbumin,113
"CCCCCCCCCCCCCC(=O)O[C@H](CCCCCCCCCCC)CC(=O)N[C@H]1[C@H](OCCN(CC(=O)O)C(=O)C[C@@H](CCCCCCCCCCC)OC(=O)CCCCCCCCCCCCC)O[C@H](CO)[C@@H](OP(=O)(O)O)[C@@H]1OC(=O)C[C@@H](CCCCCCCCCCC)OC(=O)CCCCCCCCCCCCC.CCN(CC)CC [B27, N-(Carboxymethyl)-N-[(R)-3-tetradecanoyloxytetradecanoyl]-2-aminoethyl 2-Deoxy-4-O-phophono-2-[(R)-3-tetradecanoyloxytetradecanoylamino]-3-O-[(R)-3-tetradecanoyloxytetradecanoyl]-β-d-glucopyranoside Triethylammonium Salt]",% Cytotoxicity,E.G7 (OVA) cells; E:T 12.5:1,5%
same,% Cytotoxicity,E.G7 (OVA) cells; E:T 25:1,9%
same,% Cytotoxicity,E.G7 (OVA) cells; E:T 50:1,17%
same,Anti-ovalbumin IgG1 T/C,ovalbumin,0.8
same,Anti-ovalbumin IgG1 Titer,ovalbumin,1275
same,Anti-ovalbumin IgG2a T/C,ovalbumin,0.1
same,Anti-ovalbumin IgG2a Titer,ovalbumin,38
same,Anti-ovalbumin IgG2b T/C,ovalbumin,0.5
same,Anti-ovalbumin IgG2b Titer,ovalbumin,113
same,Anti-ovalbumin IgM T/C,ovalbumin,1.6
same,Anti-ovalbumin IgM Titer,ovalbumin,300
same,Anti-ovalbumin Total Ig T/C,ovalbumin,0.6
same,Anti-ovalbumin Total Ig Titer,ovalbumin,138
same,IgG1 T/C Ratio,tetanus toxoid [9],1.6
same,IgG1 Titer,tetanus toxoid [9],"10,400"
same,IgG2a T/C Ratio,tetanus toxoid [9],12.0
same,IgG2a Titer,tetanus toxoid [9],900
same,IgG2b T/C Ratio,tetanus toxoid [9],11.6
same,IgG2b Titer,tetanus toxoid [9],"9,000"
same,IgM T/C Ratio,tetanus toxoid [9],4.0
same,IgM Titer,tetanus toxoid [9],"11,200"
same,Total Ig T/C Ratio,tetanus toxoid [9],3.2
same,Total Ig Titer,tetanus toxoid [9],"6,800"
same,"PYROGENICITY Total Rise ° C., 3 rabbits",[6],3.9 °C
3-Hydroxy-(S)-2-[(R)-3-undecanoyloxytetradecanoylamino]propyl 2-Deoxy-4-O-phosphono-2-[(R)-3-undecanoyloxytetradecanoylamino]-3-O-[(R)-3-undecanoyloxytetradecanoyl]-β-D-glucopyranoside Triethylammonium Salt [B4],IgG Titer-1 post 1°,influenza A/HK/68 [1],800
same,IgG Titer-1 post 2°,influenza A/HK/68 [1],"25,600"
same,Percent Survival post 1°,influenza A/HK/68 [1],50%
same,Percent Survival post 2°,influenza A/HK/68 [1],70%
same,% Cytotoxicity,E.G7 (OVA) cells; E:T 12.5:1,60%
same,% Cytotoxicity,E.G7 (OVA) cells; E:T 25:1,66%
same,% Cytotoxicity,E.G7 (OVA) cells; E:T 50:1,72%
same,Anti HBsAg Titer^−1 IgA,[2]; [10],"6,400"
same,Anti HBsAg Titer^−1 IgG1,[2]; [10],500K
same,Anti HBsAg Titer^−1 IgG2a,[2]; [10],1000K
same,Anti HBsAg Titer^−1 IgG1,[2]; [11],1000K
same,Anti HBsAg Titer^−1 IgG2a,[2]; [11],2000K
same,Anti HBsAg Titer^−1 IgA,[2]; [11],"25,600"
same,Percent Survival,influenza A/HK/68 [3],60%
same,Titer−1 IgG1,influenza A/HK/68 [3],400
same,Titer−1 IgG2a,influenza A/HK/68 [3],100
same,Titer−1 IgG2b,influenza A/HK/68 [3],1600
same,Titer−1 Total IgG,influenza A/HK/68 [3],3200
same,Vaginal Wash Anti-HBsAg Titer^−1 IgA,[4],6400
same,Vaginal Wash Anti-HBsAg Titer^−1 IgG,[4],1600
same,"% Cytotoxicity (d16, post 2°)",[5]; E/T 6.25:1,7%
same,"% Cytotoxicity (d8, post 3°)",[5]; E/T 6.25:1,5%
same,"% Cytotoxicity (d16, post 2°)",[5]; E/T 12.5:1,9%
same,"% Cytotoxicity (d8, post 3°)",[5]; E/T 12.5:1,9%
same,"% Cytotoxicity (d16, post 2°)",[5]; E/T 25:1,17%
same,"% Cytotoxicity (d8, post 3°)",[5]; E/T 25:1,15%
same,"% Cytotoxicity (d16, post 2°)",[5]; E/T 50:1,28%
same,"% Cytotoxicity (d8, post 3°)",[5]; E/T 50:1,23%
same,"PYROGENICITY Total Rise ° C., 3 rabbits",[6],3.4 °C

# Source: patent US7541020B2, “Aminoalkyl glucosaminide phosphate compounds and their use as adjuvants and immunoeffectors” (priority 1997, dated 2009)
